Measured values: US6365616B1, “Methimazole derivatives and tautomeric cyclic thiones to treat autoimmune diseases” (Sentron Medical, Inc., priority 1998, dated 2002)

Columns and labels:
[1] = tested on: protein/DNA complex with Fragment 127 of the MHC class I 5′-flanking region; assay: Gel shift (EMSA) with downstream 127 class I probe, extracts from treated FRTL-5 cells; assay type: cell-based, rat; settings: 5H cells treated 48 hours
Procedure: Cells were grown in 6H medium with 5 % calf serum for 6-7 days to 70-80% confluence, then shifted to 5H medium with 5 % calf serum for 5 days. TSH (1×10^−10 M), gamma-interferon (100 U/ml), MMI (5 mM), and different concentrations of MMI derivatives or tautomeric cyclic thiones (0.0001 to 10 mM) were added as appropriate for […]. Cells were then harvested and extracts were made by a modification of a method of Dignam, J., et al. Methods in Enzymology, 101:582-598 (1983). In brief, cells were harvested by scraping after being washed twice with cold phosphate-buffer saline (PBS). Subsequently they were pelleted, washed in cold PBS and then pelleted again. The pellet was resuspended in Dignam buffer C (20 mM Hepes buffer at pH 7.9, 1.5 mM MgCl2, 0.42 M NaCl, 25% glycerol, 0.5 mM dithiotreitol (DTT), 0.5 mM phenylmethylsulfonylfluoride (PMSF), 1 […] pepstatin). The final NaCl concentration was adjusted on the basis of cell pellet volume to 0.42 M and cells were lysed by repeated cycles of freezing and thawing. Extracts were then centrifuged at 10,000×g at 4° C. for 20 min. The supernatant was recovered, aliquoted and stored at −70° C.
Binding reactions were performed in a volume of 20 μl for 30 min at room temperature. The typical reaction mixture contained 1.5 fmol of ^32P DNA, 3 μg of cell extracts, 1 to 3 μg of poly (dI-dC) in 10 mM Tris-Cl (pH 7.9), 1 mM MgCl2, 1 mM DTT, 1 mM ethylenediamine tetra acetic acid (EDTA), and 5 % glycerol. After incubation, reaction mixtures were subjected to electrophoresis in 4% polyacrylamide gels for 90-120 min at 160 V in 0.5× TBE (Sambrook, J., et al., Molecular Cloning: A Laboratory Manual, 2nd ed. Cold Spring Harbor Press, NY, 2: 11.23-11.44 (1989)), then dried and autoradiographed. Probes were labeled with [α32P] deoxy CTP by Klenow enzyme (In Vitro labeling kit, Amersham) following the manufacturer's instructions, or by [γ^32P] ATP using T4 polynucleotide kinase. Labeled probes were then purified either through G-50 columns (5 prime→3 Prime) or on an 8% polyacrylamide gel.
FIG. 3 denotes the sequence of the downstream region of the PD1 promoter. The location of enhancer A (−180 to −170 bp), the interferon response element (IRE; −161 to −150 bp), and the cAMP response element (CRE; −107 to −100 bp) are noted. The downstream silencer is between −127 and −80 bp (Saji, et al., ibid, 20096-20107 (1997)). Using a 127 bp probe, −125 to +1 bp, MMI (lane 4) or TSH (lane 10) induce the formation of a rapidly migrating protein/DNA complex (FIG. 4) which is clearly evident 24 to 48 h after SH cells are treated. MMI derivatives can also increase this complex, as illustrated for compound 8 in FIG. 4 (lanes 1 to 3). The time most suitable for measurement is 24 to 48 h (FIG. 4) the complex can be quantitated by comparison to control (lane 7 or 9) using densitometry or the phosphoimager as noted earlier. In this case, the increase over control (set at 1) is measured in arbitrary units relative to the maximal increase induced by 5 mM MMI which is arbitrarily set at 10. The results using all 11 compounds in Table 1, each added to cells at different concentrations 48 hours before extracts were prepared, are summarized in Table 3.

[2] = tested on: MHC class II antigen expression; assay: Flow cytometry of IFN-increased class II antigen expression in FRTL-5 cells; assay type: cell-based, rat; settings: for Concentration to inhibit IFN-increased antigen expression, Class II: 100 U/ml γ-interferon, 6H medium (TSH), 40 hours
Procedure: […] 13 and 14. Cells were stained with a fluorescein isothiocyanate conjugated class II-specific monoclonal antibody to RT1.B (clone OX-6, Sera Labs, UK) for 60 min at 4° C., washed twice with Dulbecco's phosphate buffered saline, and subjected to laser flow cytometry.
In this experiment 10^6 cells were incubated with MHC class II or MHC class I-specific antibodies as described (Montani, V., et al., ibid (1998b); Saji, M., et al., ibid (1992a); Balducci-Silano, P. L., et al., Endocrinology 139:2309-2313 (1998)). After 30 min on ice, cells were washed with phosphate buffered saline at pH 7.4 and incubated for 30 min with fluorescein-isothiocyanate (FITC)-conjugated antibodies then analyzed by flow cytometry on a FACScan Cytometer using CellQuest software (Becton Dickinson).
The concentration needed to achieve suppression of the interferon induced class I or class II surface expression was determined by testing different concentrations of the compounds (Table 18). Like all other assays, the order of effectiveness was compound 10>11>7 or 8>2>MMI>3.

Row | Structure (SMILES) | % increase over control relative to the maximal (5 mM) MMI-increased silencer complex which is set at 10 ([1]; 10 μM) [%] | % increase over control relative to the maximal (5 mM) MMI-increased silencer complex which is set at 10 ([1]; 100 μM) [%] | % increase over control relative to the maximal (5 mM) MMI-increased silencer complex which is set at 10 ([1]; 1 mM) [%] | % increase over control relative to the maximal (5 mM) MMI-increased silencer complex which is set at 10 ([1]; 5 mM) | Concentration to inhibit IFN-increased antigen expression, Class II [2] | endogenous class II antigen expression on the cell surface (flow cytometry, FIG. 12) ([2]; 5 mM MMI with 100 U/ml γ-IFN, 48 hours)
1 | Cc1cnc(S)n1C [Compound 9, 5-Methylmethimazole] | 0 | 0 | 1.5 ± 1.5 | 2.5 ± 1% |  | 
2 | Cc1ncc([N+](=O)[O-])n1CCO [Compound 2, 2-Methyl-5-nitro-1-imidazole ethanol] | 0 | 0 | 5 ± 1 | 10 ± 2% | 1500 ± 1000 µM | 
3 | CSc1nccn1C [Compound 7, S-Methylmethimazole] | 0 | 2 ± 1 | 6 ± 0.5 |  | 405 ± 15 µM | 
4 | Cn1c(-c2ccccc2)cnc1S [Compound 10, 5-Phenylmethimazole] | 3 ± 1.5 | 7 ± 1 | 10 ± 1 |  | 54 ± 11 µM | 
5 | Sc1ncc[nH]1 [Compound 3, 2-Mercaptoimidazole] | 0 | 0 | 0 | 0% | No Inhibition | 
6 | Cn1ccn(C)c1=S [Compound 8, N-Methylmethimazole] | 0 | 3 ± 2 | 9 ± 1 |  | 439 ± 93 µM | 
7 | Sc1nc2ccccc2[nH]1 [Compound 4, 2-Mercaptobenzimidazole] | 0 | 3 ± 0.5 | 9 ± 1.5 | Insol |  | 
8 | Cc1ccc2[nH]c(S)nc2c1 [Compound 6, 2-Mercapto-5-methylbenzimidazole] | 0 | 0 | 3 ± 2 | Insol |  | 
9 | Cn1ccnc1S [Compound 1, 1-Methylimidazole-2-thiol] | 0 | 0 | 2 ± 1 | 10% | 5000 µM | decreased endogenous class II antigen expression
10 | O=[N+]([O-])c1ccc2[nH]c(S)nc2c1 [Compound 5, 2-Mercapto-5-nitrobenzimidazole] | 0 | 0 | 0 | Insol |  | 
